Laboratory results as given in ChEMBL document CHEMBL5506057, “Discovery and Optimization of Potent, Efficacious and Selective Inhibitors Targeting EGFR Exon20 Insertion Mutations” (J Med Chem, 2024).
Activity calls are given as the source filed them. The rule behind the calls is not given here.

Columns and labels:
MDR1, BCRP = experiment: Efflux ratio of apparent permeability across basolateral to apical side over apical to basolateral side in MDCKII-MDR1-BCRP cells at 1 uM incubated for 90 mins; format: ADME, cell-based, Canis lupus familiaris; details: dog
[1] = Lipophilicity, logD of compound in octanol and aqueous buffer at pH 7.4 incubated for 2 hrs by shake-flask method based LC-MS/MS analysis; format: physicochemical
[2] = Metabolic stability in human liver microsomes assessed as intrinsic clearance at 1 uM incubated for 30 mins in presence of NADPH by LC-MS/MS analysis; format: ADME, Microsome; details: read-out: CLH
[3] = Metabolic stability in rat hepatocytes assessed as intrinsic clearance measured per 10^6 cells at 1 uM incubated for 120 mins by LC-MS/MS analysis; format: ADME, cell-based, Hepatocyte; details: read-out: CLH
[4] = Metabolic stability in CD-1 mouse hepatocytes assessed as intrinsic clearance measured per 10^6 cells at 1 uM incubated for 120 mins by LC-MS/MS analysis; format: ADME, cell-based, Hepatocyte; details: read-out: CLH
[5] = Duration (time) of SCID mouse free plasma concentration cover over EGFR insSVD cell IC50 at 50 mg/kg, po; format: ADME, organism-based; details: in vivo
[6] = Inhibition of EGFR Ex20ins ASV mutant (unknown origin) transfected in human NCI-H2073 cells; format: cell-based
[7] = Inhibition of EGFR Ex20ins NPG mutant (unknown origin) transfected in human NCI-H2073 cells; format: cell-based
[8] = molecular target: T1, Tyrosine-protein kinase BTK (Homo sapiens, UniProt Q06187); experiment: Inhibition of BTK (unknown origin) at 0.1 uM relative to control
T1 sequence (Q06187 whole entry): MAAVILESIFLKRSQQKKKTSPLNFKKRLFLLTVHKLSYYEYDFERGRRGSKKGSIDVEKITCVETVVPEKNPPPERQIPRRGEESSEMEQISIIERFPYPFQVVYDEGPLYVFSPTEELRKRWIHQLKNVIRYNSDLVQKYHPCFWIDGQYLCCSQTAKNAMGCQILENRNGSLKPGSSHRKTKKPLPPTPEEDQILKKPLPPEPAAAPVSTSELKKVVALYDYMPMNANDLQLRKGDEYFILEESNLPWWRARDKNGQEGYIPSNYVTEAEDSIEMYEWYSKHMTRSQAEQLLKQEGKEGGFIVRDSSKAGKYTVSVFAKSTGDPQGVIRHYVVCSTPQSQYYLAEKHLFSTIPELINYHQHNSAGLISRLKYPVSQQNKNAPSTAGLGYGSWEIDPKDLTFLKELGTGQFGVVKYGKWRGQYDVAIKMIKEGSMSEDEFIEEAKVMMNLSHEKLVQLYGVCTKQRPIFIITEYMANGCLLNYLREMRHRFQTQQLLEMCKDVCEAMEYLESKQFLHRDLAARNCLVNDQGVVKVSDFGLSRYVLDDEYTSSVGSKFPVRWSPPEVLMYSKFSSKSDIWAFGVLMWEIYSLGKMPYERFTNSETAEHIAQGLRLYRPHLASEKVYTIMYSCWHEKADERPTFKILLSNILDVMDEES

[9] = molecular target: T2, Receptor tyrosine-protein kinase erbB-4 (Homo sapiens, UniProt Q15303); experiment: Inhibition of ERBB4 (unknown origin) at 0.1 uM relative to control
T2 sequence (Q15303 whole entry): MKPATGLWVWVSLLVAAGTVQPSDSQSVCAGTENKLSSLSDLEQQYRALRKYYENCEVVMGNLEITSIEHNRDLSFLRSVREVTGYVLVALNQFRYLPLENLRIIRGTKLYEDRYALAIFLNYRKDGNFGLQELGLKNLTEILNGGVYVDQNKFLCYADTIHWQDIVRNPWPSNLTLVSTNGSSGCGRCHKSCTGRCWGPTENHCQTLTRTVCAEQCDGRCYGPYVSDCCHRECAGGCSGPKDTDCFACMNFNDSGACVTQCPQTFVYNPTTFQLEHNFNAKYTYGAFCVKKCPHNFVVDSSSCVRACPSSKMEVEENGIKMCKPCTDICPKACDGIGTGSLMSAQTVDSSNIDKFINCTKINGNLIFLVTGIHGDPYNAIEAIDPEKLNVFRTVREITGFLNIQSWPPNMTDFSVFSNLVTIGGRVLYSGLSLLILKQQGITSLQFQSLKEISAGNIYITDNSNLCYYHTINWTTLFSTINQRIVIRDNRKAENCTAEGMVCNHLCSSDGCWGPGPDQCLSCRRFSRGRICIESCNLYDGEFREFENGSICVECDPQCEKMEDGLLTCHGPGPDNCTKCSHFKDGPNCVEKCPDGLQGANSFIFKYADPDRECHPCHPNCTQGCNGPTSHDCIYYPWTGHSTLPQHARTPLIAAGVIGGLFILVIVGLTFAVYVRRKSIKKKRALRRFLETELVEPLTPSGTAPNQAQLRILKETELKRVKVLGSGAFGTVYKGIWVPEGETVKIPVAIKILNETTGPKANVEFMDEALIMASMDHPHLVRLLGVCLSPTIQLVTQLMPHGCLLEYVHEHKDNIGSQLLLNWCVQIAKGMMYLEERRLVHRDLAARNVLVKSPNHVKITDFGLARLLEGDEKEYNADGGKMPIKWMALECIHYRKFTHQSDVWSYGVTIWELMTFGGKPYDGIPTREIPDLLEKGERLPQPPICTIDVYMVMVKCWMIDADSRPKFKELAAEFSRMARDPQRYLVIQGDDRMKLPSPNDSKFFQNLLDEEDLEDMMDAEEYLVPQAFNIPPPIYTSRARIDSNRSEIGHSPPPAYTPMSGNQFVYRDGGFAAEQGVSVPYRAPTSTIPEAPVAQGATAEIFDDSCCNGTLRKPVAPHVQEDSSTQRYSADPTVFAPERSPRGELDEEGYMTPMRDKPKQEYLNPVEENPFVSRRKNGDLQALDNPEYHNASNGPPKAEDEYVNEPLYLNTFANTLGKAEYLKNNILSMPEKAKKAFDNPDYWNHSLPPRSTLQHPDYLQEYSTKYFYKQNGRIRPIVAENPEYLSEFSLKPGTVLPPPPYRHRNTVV

[10] = molecular target: TRAF2 and NCK-interacting protein kinase (Homo sapiens) (UniProt Q9UKE5); experiment: Inhibition of TNIK (unknown origin) at 0.1 uM relative to control
[11] = molecular target: Misshapen-like kinase 1 (Homo sapiens) (UniProt Q8N4C8); experiment: Inhibition of MINK1 (unknown origin) at 0.1 uM relative to control
Chain of Misshapen-like kinase 1 (Homo sapiens) (Q8N4C8 whole entry, looked up): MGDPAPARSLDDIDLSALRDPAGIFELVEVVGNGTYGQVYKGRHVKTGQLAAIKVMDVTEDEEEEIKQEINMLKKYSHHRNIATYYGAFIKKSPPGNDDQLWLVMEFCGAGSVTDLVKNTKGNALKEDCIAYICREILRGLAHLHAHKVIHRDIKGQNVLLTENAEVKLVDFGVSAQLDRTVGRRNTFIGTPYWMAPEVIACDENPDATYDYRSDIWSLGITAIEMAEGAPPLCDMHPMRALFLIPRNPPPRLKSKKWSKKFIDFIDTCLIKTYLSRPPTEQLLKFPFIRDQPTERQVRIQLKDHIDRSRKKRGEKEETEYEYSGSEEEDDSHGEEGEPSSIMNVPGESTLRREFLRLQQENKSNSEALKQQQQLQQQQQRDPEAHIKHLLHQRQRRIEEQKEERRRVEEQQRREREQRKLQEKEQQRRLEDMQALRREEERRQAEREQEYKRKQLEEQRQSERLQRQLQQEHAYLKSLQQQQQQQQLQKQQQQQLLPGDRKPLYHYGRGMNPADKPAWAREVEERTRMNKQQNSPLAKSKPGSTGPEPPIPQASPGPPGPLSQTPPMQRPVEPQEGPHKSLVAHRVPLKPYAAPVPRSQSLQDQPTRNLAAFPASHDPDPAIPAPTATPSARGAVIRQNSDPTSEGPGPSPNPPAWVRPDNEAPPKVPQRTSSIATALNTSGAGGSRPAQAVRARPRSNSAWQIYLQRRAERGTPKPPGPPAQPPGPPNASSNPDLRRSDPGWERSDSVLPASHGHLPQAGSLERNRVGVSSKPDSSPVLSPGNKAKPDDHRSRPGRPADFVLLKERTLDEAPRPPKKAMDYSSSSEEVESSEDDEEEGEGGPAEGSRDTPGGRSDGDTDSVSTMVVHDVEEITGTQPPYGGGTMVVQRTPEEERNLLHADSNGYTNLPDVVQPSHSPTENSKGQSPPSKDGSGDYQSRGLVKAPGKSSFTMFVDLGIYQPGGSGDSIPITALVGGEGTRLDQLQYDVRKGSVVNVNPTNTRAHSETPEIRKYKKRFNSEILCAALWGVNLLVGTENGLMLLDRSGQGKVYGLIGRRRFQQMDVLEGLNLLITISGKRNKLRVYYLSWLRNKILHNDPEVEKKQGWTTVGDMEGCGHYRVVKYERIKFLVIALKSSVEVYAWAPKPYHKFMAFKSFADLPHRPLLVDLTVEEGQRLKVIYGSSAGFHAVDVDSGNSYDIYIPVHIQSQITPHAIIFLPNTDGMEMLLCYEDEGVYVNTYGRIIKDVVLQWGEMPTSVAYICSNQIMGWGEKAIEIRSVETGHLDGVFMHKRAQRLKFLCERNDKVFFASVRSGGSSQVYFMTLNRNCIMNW

[12] = molecular target: Tyrosine-protein kinase Blk (Homo sapiens) (UniProt P51451); experiment: Inhibition of BLK (unknown origin) at 0.1 uM relative to control
Chain of Tyrosine-protein kinase Blk (Homo sapiens) (P51451 2-505 limits assumed): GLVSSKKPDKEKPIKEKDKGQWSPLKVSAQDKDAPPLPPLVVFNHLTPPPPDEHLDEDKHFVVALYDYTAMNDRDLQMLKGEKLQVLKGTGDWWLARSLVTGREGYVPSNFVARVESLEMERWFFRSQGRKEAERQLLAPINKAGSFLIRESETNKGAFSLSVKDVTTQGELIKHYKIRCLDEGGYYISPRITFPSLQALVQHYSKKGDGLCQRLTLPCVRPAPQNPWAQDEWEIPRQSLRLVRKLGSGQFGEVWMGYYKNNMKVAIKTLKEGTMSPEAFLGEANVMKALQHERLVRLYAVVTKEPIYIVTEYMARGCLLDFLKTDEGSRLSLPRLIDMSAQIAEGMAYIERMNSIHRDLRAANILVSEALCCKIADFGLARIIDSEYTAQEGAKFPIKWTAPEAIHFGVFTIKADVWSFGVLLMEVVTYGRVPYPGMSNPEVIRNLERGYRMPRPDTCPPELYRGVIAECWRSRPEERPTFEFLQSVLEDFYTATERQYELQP

[13] = molecular target: T1, Tyrosine-protein kinase BTK; experiment: Inhibition of BTK (unknown origin)
[14] = molecular target: T2, Receptor tyrosine-protein kinase erbB-4; experiment: Inhibition of ERBB4 (unknown origin)
[15] = Antitumor activity against human NCI-H2073 cells harboring EGFR D770_N771insSVD mutant xenografted in female SCID mouse assessed as tumor growth inhibition at 100 mg/kg, po administered once daily for 14 days relative to control; format: functional; details: NCI-H2073, 336 h, time 14 day, read-out: TGI
[16] = Toxicity in female SCID mouse xenografted with human NCI-H2073 cells harboring EGFR D770_N771insSVD mutant assessed as body weight loss at 100 mg/kg, po administered once daily for 14 days; format: organism-based; details: in vivo, 336 h, time 14 day
[17] = Antitumor activity against human NCI-H2073 cells harboring wildtype EGFR xenografted in female SCID mouse assessed as tumor growth inhibition at 100 mg/kg, po administered once daily for 15 days relative to control; format: functional; details: NCI-H2073, 360 h, time 15 day, read-out: TGI
Mus musculus = experiment: In vivo inhibition of EGFR phosphorylation in female SCID mouse xenografted with NCI-H2073 cells harboring EGFR D770_N771insSVD mutant at 100 mg/kg, po measured after 1 to 6 hrs by immunoblotting analysis; format: functional, organism-based; details: time 1-6 hrs

SMILES	efflux ratio at 1.5 h, 1 µM (MDR1, BCRP)	logD at 2 h [1]	microsomal CLint at 1 µM [2]	hepatocyte CLint at 1 µM [3]	hepatocyte CLint at 1 µM [4]	Time [5]	IC50 [6]	IC50 [7]	inhibition [8]	inhibition [9]	inhibition [10]	inhibition [11]	inhibition [12]	IC50 [13]	IC50 [14]	inhibition in vivo at 100 mg/kg [15]	Activity [16]	inhibition in vivo at 100 mg/kg [17]	inhibition (Mus musculus)
C=CC(=O)Nc1cc(Nc2nccc(-c3cn(C)c4ccccc34)n2)c(OC)cc1N(C)CCN(C)C [OSIMERTINIB]	3.2	–	–	–	–	–	–	–	–	–	–	–	–	–	–	–	–	–	–
C=CC(=O)N1CC[C@H](n2cc(-c3ccncc3)c(-c3cccc(/C=C/c4ncc(C5CC5)o4)c3)n2)C1	–	4.8	214 µL/min/mg	43 µL/min/1e6 cells	35 µL/min/1e6 cells	12 h	67 nM	55 nM	99%	99%	57%	55%	51%	10 nM	9 nM	62%	< 10%	13%	Active
